Experimental data from US20240241113A1, “Method for detecting binding to an ADP-ribosyl group or a polymer thereof and a kit for performing said method” (priority 2021, published 2024).

How the values were obtained:
CFP-ALC1 (human) = CFP-ALC1 (human) (UniProt Q86WJ1); experiment: FRET competition: 250 nM CFP-ALC1 + 500 nM YFP-GAP(PAR), PARylated PARP2 varied; displaced ligand YFP-GAP(PAR) [e]
SARS-CoV2 = conditions: cell-culture based models; reported; cited from earlier work
[1] = tested on: viral and human ADP-ribose readers and erasers; experiment: FRET inhibition profile against ADP-ribosyl binders with YFP-GAP(MAR) or YFP-GAP(PAR); assay type: binding; conditions: 10 μM suramin; many of the proteins tested; ratiometric FRET
Method: (§1) The experiments were carried out in assay buffer (10 mM Bis-Tris-Propane pH 7.0, 3% (w/v) PEG20,000, 0.01% (v/v) Triton X-100 and 0.5 mM TCEP) in 10 μl volume per well unless stated otherwise.

[2] = biological target: T1, SARS-CoV-2 nsp3 macrodomain (Severe acute respiratory syndrome coronavirus 2, UniProt P0DTD1); experiment: FRET-based binding assay, CFP-SARS-CoV-2 nsp3 macrodomain with MARylated YFP-Gαi
Method: as §1
For the screening, 40 nl of 10 mM compound stocks dissolved in DMSO from the FDA-approved drug library (Enzo Life Sciences) were transferred to 384-well black low-volume polypropylene plates (Fisherbrand). The sample mixture containing 1 μM CFP-SARS-CoV-2 nsp3 macrodomain and 5 μM MARylated YFP-Gαi was prepared in assay buffer (10 mM Bis-Tris-Propane pH 7.0, 3% (w/v) PEG20,000, 0.01% (v/v) Triton X-100 and 0.5 mM TCEP) and 20 μl per well were dispensed using Mantis (Formulatrix). The rFRET signal was determined after 5 minute incubation time.

[3] = biological target: T1, SARS-CoV-2 nsp3 macrodomain; experiment: Validation of suramin binding by DSF; conditions: 5 μM macrodomain without tags, suramin 10 μM, 50 μM, 100 μM or 1 mM
Method: The SARS-CoV-2 nsp3 macrodomain without tags was diluted to 5 μM in 10 mM HEPES pH 7.5, 25 mM NaCl, 0.5 mM TCEP buffer and mixed with 5×SYPRO Orange. Samples were prepared with 10 μM, 50 μM, 100 μM or 1 mM of suramin. […] Samples were transferred to 96-well qPCR plates. Measurement was performed in a BioRad C1000 CFX96 thermal cycler. Data points for melting curves were recorded in 1 min intervals from 20-95° C., with the temperature increasing by 1° C./min. The analysis of the data was done in GraphPad Prism 7 using a nonlinear regression analysis (Boltzmann sigmoid equation) of normalized data.

Chain of CFP-ALC1 (human) (Q86WJ1 616-878 limits assumed): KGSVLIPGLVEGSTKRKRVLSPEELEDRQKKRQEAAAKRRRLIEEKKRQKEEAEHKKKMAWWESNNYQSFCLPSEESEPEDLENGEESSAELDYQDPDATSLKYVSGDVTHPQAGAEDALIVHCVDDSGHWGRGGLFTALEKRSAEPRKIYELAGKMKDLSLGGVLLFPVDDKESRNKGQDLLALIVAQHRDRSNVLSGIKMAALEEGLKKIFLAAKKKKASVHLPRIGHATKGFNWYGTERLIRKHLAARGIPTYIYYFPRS

Row | Molecule | IC50 (read off the curve) (CFP-ALC1 (human)) | inhibition of SARS-CoV2 infection (SARS-CoV2) | inhibition of viral and human ADP-ribose readers and erasers [1] | inhibition at 20 µM ([2]; 20 μM compound, 1 μM CFP-SARS-CoV-2 nsp3 macrodomain, 5 μM MARylated YFP-Gαi, rFRET, read-out: inhibition in screen of ENZO FDA-approved drug library) | IC50 ([2]; FRET-based assay, dose-response curve, read-out: IC50 against the SARS-CoV-2 nsp3 macrodomain) | stabilization of the protein by DSF [3] | stabilization of the protein by DSF ([3]; listed as Suramin)
1 | PARylated PARP2 (from UniProt Q9UGN5 90-583) (enzyme) | 0.03 µM |  |  |  |  |  | 
2 | Cc1ccc(C(=O)Nc2ccc(S(=O)(=O)O)c3cc(S(=O)(=O)O)cc(S(=O)(=O)O)c23)cc1NC(=O)c1cccc(NC(=O)Nc2cccc(C(=O)Nc3cc(C(=O)Nc4ccc(S(=O)(=O)O)c5cc(S(=O)(=O)O)cc(S(=O)(=O)O)c45)ccc3C)c2)c1 [suramin] |  | inhibit | strong inhibition | 82% | 8.7 µM | stabilization of the protein in a concentration dependent manner | stabilization
